Results on twelve compounds are retold here after patent publication US20260242419A1, “A CYCLIC PEPTIDE FOR TRAPPING INTERLEUKIN-1 BETA” (Merck Sharp & Dohme LLC, priority 2023, published 2026).

Structures are written as SMILES. pIC50: −log10 of the molar value. Starred links: 1 amine or outer side, 2 acyl side, 3 side chain; linkers in the order of their positions; H or OH if unused. Non-standard residues stand in square brackets, D forms with d. Residues, ends and D or L forms follow the SMILES beside them. Phe(4-(5-CO2H-2-pyrimidyl)) = N[C@@H](Cc1ccc(-c2ncc(C(=O)O)cn2)cc1)C(=O)O; Phe(4-(4-Ac-piperazinyl)) = CC(=O)N1CCN(c2ccc(C[C@H](N)C(=O)O)cc2)CC1; dPro(4R-(4-pyridylmethyl)) = O=C(O)[C@H]1C[C@@H](Cc2ccncc2)CN1; Ala(piperidin-4-yl) = O=C([C@H](CC1CCN([*:3])CC1)N[*:1])[*:2]; Trp(βS-Me,4-F) = C[C@@H](c1c[nH]c2cccc(F)c12)[C@H](N)C(=O)O; Bip(4'-COOH) = N[C@@H](Cc1ccc(-c2ccc(C(=O)O)cc2)cc1)C(=O)O; Ala(1-bicyclo(1.1.1)pentyl) = N[C@@H](CC12CC(C1)C2)C(=O)O; dPro(4R-Bzl(4-F)) = O=C(O)[C@H]1C[C@@H](Cc2ccc(F)cc2)CN1; Ala(pyrimidin-5-yl) = N[C@@H](Cc1cncnc1)C(=O)O; Phe(4-COOH) = N[C@@H](Cc1ccc(C(=O)O)cc1)C(=O)O; Pro(cis-4-F) = O=C(O)[C@@H]1C[C@H](F)CN1; Ala(4-THP) = N[C@@H](CC1CCOCC1)C(=O)O; cisHyp = O=C(O)[C@@H]1C[C@H](O)CN1; d(αMeD) = C[C@@](N)(CC(=O)O)C(=O)O; 4Pal = N[C@@H](Cc1ccncc1)C(=O)O; aThr = C[C@H](O)[C@H](N)C(=O)O; αMeD = C[C@](N)(CC(=O)O)C(=O)O; d(αMeS) = C[C@@](N)(CO)C(=O)O; Dab = NCC[C@H](N)C(=O)O; Aib = CC(C)(N)C(=O)O

For the test, the target named is T1, IL-1β (Homo sapiens, UniProt P01584).
T1 construct: purchased BioLegend 579404
T1 sequence (P01584 117-269): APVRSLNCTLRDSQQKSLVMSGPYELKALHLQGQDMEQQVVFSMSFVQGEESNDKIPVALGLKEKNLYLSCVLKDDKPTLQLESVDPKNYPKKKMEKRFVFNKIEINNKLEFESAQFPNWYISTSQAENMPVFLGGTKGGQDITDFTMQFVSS
The test can be described thus: IL-6 assay in MRC5 cells: inhibition of IL-1β induced IL-6 secretion (AlphaLISA). In kind it is cell-based. To be noted: inhibition of IL-1β induced IL-6 secretion in MRC5 cells; read-out: MRC5 IC50. The gist of the method:
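Compound was pre-incubated 1 h at ambient temperature with recombinant human IL-1β at 2λ EC80 before adding human lung fibroblast MRC5 cells (3000/well) in EMEM with 0.025% BSA. After overnight culture at 37 °C, 5% CO2, secreted IL-6 in conditioned medium was measured by AlphaLISA; IC50 from 4-parameter logistic fits.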
(Bead proximity is the source of the signal in Alpha formats.)
A word on the pIC50: it is −log10 of the IC50, conventionally taken in molar units. Consider `C[C@@H](c1c[nH]c2cccc(F)c12)[C@@H]1NC(=O)[C@@H]2C[C@H](F)CN2C(=O)CNC(=O)[C@H](Cc2ccc(C(=O)O)cc2)NC(=O)[C@H](CC23CC(C2)C3)NC(=O)[C@H](Cc2ccc(-c3ccc(C(=O)O)cc3)cc2)NC(=O)[C@H]2C[C@@H](Cc3ccncc3)CN2C(=O)CNC(=O)[C@H](CO)NC(=O)[C@H](CCC(N)=O)NC(=O)[C@H](CC2CCNCC2)NC(=O)[C@@](C)(CO)NC(=O)[C@H](Cc2c[nH]c3ccccc23)NC(=O)[C@H](CO)NC(=O)C(C)(C)NC1=O` [Example 181] (cyclo([Bip(4'-COOH)][Ala(1-bicyclo(1.1.1)pentyl)][Phe(4-COOH)]G[Pro(cis-4-F)][Trp(βS-Me,4-F)][Aib]SW[d(αMeS)][Ala(piperidin-4-yl)]QSG[dPro(4R-(4-pyridylmethyl))])), for which the pIC50 was 10.68.

For `C[C@H](O)[C@@H]1NC(=O)C(C)(C)NC(=O)[C@H]([C@@H](C)c2c[nH]c3cccc(F)c23)NC(=O)[C@@H]2C[C@H](O)CN2C(=O)CNC(=O)[C@H](Cc2ccc(C(=O)O)cc2)NC(=O)[C@H](CC23CC(C2)C3)NC(=O)[C@H](Cc2ccc(-c3ccc(C(=O)O)cc3)cc2)NC(=O)[C@H]2C[C@@H](Cc3ccncc3)CN2C(=O)CNC(=O)[C@H](CCN)NC(=O)[C@H](CCC(N)=O)NC(=O)[C@H](Cc2cncnc2)NC(=O)[C@@](C)(CC(=O)O)NC(=O)[C@H](Cc2c[nH]c3ccccc23)NC1=O` [Example 182] (cyclo([Bip(4'-COOH)][Ala(1-bicyclo(1.1.1)pentyl)][Phe(4-COOH)]G[cisHyp][Trp(βS-Me,4-F)][Aib][aThr]W[d(αMeD)][Ala(pyrimidin-5-yl)]Q[Dab]G[dPro(4R-(4-pyridylmethyl))])), the pIC50 was 10.31.

As to `CC(=O)N1CCN(c2ccc(C[C@@H]3NC(=O)[C@H]4C[C@@H](Cc5ccc(F)cc5)CN4C(=O)CNC(=O)[C@H](CCN)NC(=O)[C@H](CCC(N)=O)NC(=O)[C@H](Cc4cncnc4)NC(=O)C(C)(C)NC(=O)[C@H](Cc4c[nH]c5ccccc45)NC(=O)[C@H](CO)NC(=O)C(C)(C)NC(=O)[C@H]([C@@H](C)c4c[nH]c5cccc(F)c45)NC(=O)[C@@H]4C[C@H](F)CN4C(=O)CNC(=O)[C@H](Cc4ccc(C(=O)O)cc4)NC(=O)[C@H](Cc4ccncc4)NC3=O)cc2)CC1` [Example 183] (cyclo([Phe(4-(4-Ac-piperazinyl))][4Pal][Phe(4-COOH)]G[Pro(cis-4-F)][Trp(βS-Me,4-F)][Aib]SW[Aib][Ala(pyrimidin-5-yl)]Q[Dab]G[dPro(4R-Bzl(4-F))])), the pIC50 was 10.60.

For `CC(=O)N1CCN(c2ccc(C[C@@H]3NC(=O)[C@H]4C[C@@H](Cc5ccc(F)cc5)CN4C(=O)CNC(=O)[C@H](CCN)NC(=O)[C@H](CCC(N)=O)NC(=O)[C@H](Cc4cncnc4)NC(=O)[C@](C)(CC(=O)O)NC(=O)[C@H](Cc4c[nH]c5ccccc45)NC(=O)[C@H](CO)NC(=O)C(C)(C)NC(=O)[C@H]([C@@H](C)c4c[nH]c5cccc(F)c45)NC(=O)[C@@H]4C[C@H](F)CN4C(=O)CNC(=O)[C@H](Cc4ccc(C(=O)O)cc4)NC(=O)[C@H](Cc4ccncc4)NC3=O)cc2)CC1` [Example 184] (cyclo([Phe(4-(4-Ac-piperazinyl))][4Pal][Phe(4-COOH)]G[Pro(cis-4-F)][Trp(βS-Me,4-F)][Aib]SW[αMeD][Ala(pyrimidin-5-yl)]Q[Dab]G[dPro(4R-Bzl(4-F))])), the pIC50 was 10.85.

Turning to `C[C@@H](c1c[nH]c2cccc(F)c12)[C@@H]1NC(=O)[C@@H]2C[C@H](O)CN2C(=O)CNC(=O)[C@H](Cc2ccc(C(=O)O)cc2)NC(=O)[C@H](CC23CC(C2)C3)NC(=O)[C@H](Cc2ccc(-c3ncc(C(=O)O)cn3)cc2)NC(=O)[C@H]2C[C@@H](Cc3ccncc3)CN2C(=O)CNC(=O)[C@H](CCN)NC(=O)[C@H](CCC(N)=O)NC(=O)[C@H](Cc2cncnc2)NC(=O)C(C)(C)NC(=O)[C@H](Cc2c[nH]c3ccccc23)NC(=O)[C@H](CO)NC(=O)C(C)(C)NC1=O` [Example 185] (cyclo([Phe(4-(5-CO2H-2-pyrimidyl))][Ala(1-bicyclo(1.1.1)pentyl)][Phe(4-COOH)]G[cisHyp][Trp(βS-Me,4-F)][Aib]SW[Aib][Ala(pyrimidin-5-yl)]Q[Dab]G[dPro(4R-(4-pyridylmethyl))])), the pIC50 was 10.37.

On to `C[C@@H](c1c[nH]c2cccc(F)c12)[C@@H]1NC(=O)[C@@H]2C[C@H](F)CN2C(=O)CNC(=O)[C@H](Cc2ccc(C(=O)O)cc2)NC(=O)[C@H](Cc2ccncc2)NC(=O)[C@H](Cc2ccc(-c3ncc(C(=O)O)cn3)cc2)NC(=O)[C@H]2C[C@@H](Cc3ccncc3)CN2C(=O)CNC(=O)[C@H](CCN)NC(=O)[C@H](CCC(N)=O)NC(=O)[C@H](Cc2cncnc2)NC(=O)C(C)(C)NC(=O)[C@H](Cc2c[nH]c3ccccc23)NC(=O)[C@H](CO)NC(=O)C(C)(C)NC1=O` [Example 186] (cyclo([Phe(4-(5-CO2H-2-pyrimidyl))][4Pal][Phe(4-COOH)]G[Pro(cis-4-F)][Trp(βS-Me,4-F)][Aib]SW[Aib][Ala(pyrimidin-5-yl)]Q[Dab]G[dPro(4R-(4-pyridylmethyl))])), for which the pIC50 was 10.82.

Take `C[C@@H](c1c[nH]c2cccc(F)c12)[C@@H]1NC(=O)[C@@H]2C[C@H](F)CN2C(=O)CNC(=O)[C@H](Cc2ccc(C(=O)O)cc2)NC(=O)[C@H](Cc2ccncc2)NC(=O)[C@H](Cc2ccc(-c3ncc(C(=O)O)cn3)cc2)NC(=O)[C@H]2C[C@@H](Cc3ccncc3)CN2C(=O)CNC(=O)[C@H](CCN)NC(=O)[C@H](CCC(N)=O)NC(=O)[C@H](Cc2cncnc2)NC(=O)[C@](C)(CC(=O)O)NC(=O)[C@H](Cc2c[nH]c3ccccc23)NC(=O)[C@H](CO)NC(=O)C(C)(C)NC1=O` [Example 187] (cyclo([Phe(4-(5-CO2H-2-pyrimidyl))][4Pal][Phe(4-COOH)]G[Pro(cis-4-F)][Trp(βS-Me,4-F)][Aib]SW[αMeD][Ala(pyrimidin-5-yl)]Q[Dab]G[dPro(4R-(4-pyridylmethyl))])): the pIC50 was 10.82.

Turning to `C[C@@H](c1c[nH]c2cccc(F)c12)[C@@H]1NC(=O)[C@@H]2C[C@H](F)CN2C(=O)CNC(=O)[C@H](Cc2ccc(C(=O)O)cc2)NC(=O)[C@H](CC23CC(C2)C3)NC(=O)[C@H](Cc2ccc(-c3ncc(C(=O)O)cn3)cc2)NC(=O)[C@H]2C[C@@H](Cc3ccncc3)CN2C(=O)CNC(=O)[C@H](CCN)NC(=O)[C@H](CCC(N)=O)NC(=O)[C@H](Cc2cncnc2)NC(=O)[C@](C)(CC(=O)O)NC(=O)[C@H](Cc2c[nH]c3ccccc23)NC(=O)[C@H](CO)NC(=O)C(C)(C)NC1=O` [Example 188] (cyclo([Phe(4-(5-CO2H-2-pyrimidyl))][Ala(1-bicyclo(1.1.1)pentyl)][Phe(4-COOH)]G[Pro(cis-4-F)][Trp(βS-Me,4-F)][Aib]SW[αMeD][Ala(pyrimidin-5-yl)]Q[Dab]G[dPro(4R-(4-pyridylmethyl))])), the pIC50 is 10.70.

Take `C[C@@H](c1c[nH]c2cccc(F)c12)[C@@H]1NC(=O)[C@@H]2C[C@H](F)CN2C(=O)CNC(=O)[C@H](Cc2ccc(C(=O)O)cc2)NC(=O)[C@H](Cc2ccncc2)NC(=O)[C@H](Cc2ccc(-c3ccc(C(=O)O)cc3)cc2)NC(=O)[C@H]2C[C@@H](Cc3ccncc3)CN2C(=O)CNC(=O)[C@H](CO)NC(=O)[C@H](CCC(N)=O)NC(=O)[C@H](CC2CCOCC2)NC(=O)[C@](C)(CC(=O)O)NC(=O)[C@H](Cc2c[nH]c3ccccc23)NC(=O)[C@H](CO)NC(=O)C(C)(C)NC1=O` [Example 189] (cyclo([Bip(4'-COOH)][4Pal][Phe(4-COOH)]G[Pro(cis-4-F)][Trp(βS-Me,4-F)][Aib]SW[αMeD][Ala(4-THP)]QSG[dPro(4R-(4-pyridylmethyl))])): the pIC50 was 10.80.

Turning to `C[C@@H](c1c[nH]c2cccc(F)c12)[C@@H]1NC(=O)[C@@H]2C[C@H](O)CN2C(=O)CNC(=O)[C@H](Cc2ccc(C(=O)O)cc2)NC(=O)[C@H](CC23CC(C2)C3)NC(=O)[C@H](Cc2ccc(-c3ccc(C(=O)O)cc3)cc2)NC(=O)[C@H]2C[C@@H](Cc3ccncc3)CN2C(=O)CNC(=O)[C@H](CCN)NC(=O)[C@H](CCC(N)=O)NC(=O)[C@H](Cc2cncnc2)NC(=O)[C@@](C)(CO)NC(=O)[C@H](Cc2c[nH]c3ccccc23)NC(=O)[C@H](CO)NC(=O)C(C)(C)NC1=O` [Example 190] (cyclo([Bip(4'-COOH)][Ala(1-bicyclo(1.1.1)pentyl)][Phe(4-COOH)]G[cisHyp][Trp(βS-Me,4-F)][Aib]SW[d(αMeS)][Ala(pyrimidin-5-yl)]Q[Dab]G[dPro(4R-(4-pyridylmethyl))])), the pIC50 was 10.72.

As to `C[C@@H](c1c[nH]c2cccc(F)c12)[C@@H]1NC(=O)[C@@H]2C[C@H](O)CN2C(=O)CNC(=O)[C@H](Cc2ccc(C(=O)O)cc2)NC(=O)[C@H](CC23CC(C2)C3)NC(=O)[C@H](Cc2ccc(-c3ccc(C(=O)O)cc3)cc2)NC(=O)[C@H]2C[C@@H](Cc3ccncc3)CN2C(=O)CNC(=O)[C@H](CCN)NC(=O)[C@H](CCC(N)=O)NC(=O)[C@H](CC2CCOCC2)NC(=O)[C@](C)(CC(=O)O)NC(=O)[C@H](Cc2c[nH]c3ccccc23)NC(=O)[C@H](CO)NC(=O)C(C)(C)NC1=O` [Example 191] (cyclo([Bip(4'-COOH)][Ala(1-bicyclo(1.1.1)pentyl)][Phe(4-COOH)]G[cisHyp][Trp(βS-Me,4-F)][Aib]SW[αMeD][Ala(4-THP)]Q[Dab]G[dPro(4R-(4-pyridylmethyl))])), the pIC50 is 10.68.

`C[C@@H](c1c[nH]c2cccc(F)c12)[C@@H]1NC(=O)[C@@H]2C[C@H](O)CN2C(=O)CNC(=O)[C@H](Cc2ccc(C(=O)O)cc2)NC(=O)[C@H](CC23CC(C2)C3)NC(=O)[C@H](Cc2ccc(-c3ccc(C(=O)O)cc3)cc2)NC(=O)[C@H]2C[C@@H](Cc3ccncc3)CN2C(=O)CNC(=O)[C@H](CCN)NC(=O)[C@H](CCC(N)=O)NC(=O)[C@H](CC2CCOCC2)NC(=O)[C@@](C)(CO)NC(=O)[C@H](Cc2c[nH]c3ccccc23)NC(=O)[C@H](CO)NC(=O)C(C)(C)NC1=O` [Example 192] (cyclo([Bip(4'-COOH)][Ala(1-bicyclo(1.1.1)pentyl)][Phe(4-COOH)]G[cisHyp][Trp(βS-Me,4-F)][Aib]SW[d(αMeS)][Ala(4-THP)]Q[Dab]G[dPro(4R-(4-pyridylmethyl))])): the pIC50 is 10.68.
